Converted amounts (≈) assume the structure as drawn.
Tests used:
[1] = target: recombinant LpxA enzyme (E. coli) (Escherichia coli, UniProt P0A722); test: LpxA in vitro substrate acylation assay with RapidFire MS analysis (E. coli); type: biochemical
Experimental: Exemplary compounds from the above Examples were tested for ability to inhibit LpxA activity using an in vitro substrate acylation assay with RapidFire™ MS analysis. Assay procedures and results are described below.
Reactions were carried out in a final volume of 30 μL with 25 mM HEPES (pH 7.3), 150 mM NaCl, 2 mM DTT, 0.01% BSA, 5 μM UDP-GlcNac, recombinant LpxA enzyme (0.5 nM P. aeruginosa or 1.0 nM E. coli, both produced at Evotec), 0.5 μM acyl-transfer reagent (decanoyl P. aeruginosa acyl-carrier protein [PaACP-C10] or myristoyl E. coli acyl-carrier protein [EcACP-C1-4], both produced at Evotec), and 1% DMSO containing test compound. After 30 min incubation at room temperature, reactions were stopped by addition of 30 μL of 10% TCA in water.
Samples were centrifuged (4350 rpm, 4° C., 5 min), and then subjected to RapidFire™ MS analysis on an Agilent RapidFire 300 coupled to an Agilent 6460 triple-quadrupole mass spectrometer. Analytes were retained on a C4 (type A) cartridge using the following solvents and flow rates: • Pump 1—H2O with 5 mM NH4OAc at 2.0 mL/min, • Pump 2—MeOH/H2O (90/10) at 1.5 mL/min, • Pump 3—MeOH/H2O (90/10) at 0.5 mL/min, and • Pump 4—ACN (organic)/H2O (aqueous). Substrate and product of the reaction were detected in negative mode ESI-MS/MS by MRM (multiple reaction monitoring) of transitions 606.0/385.0 (UDP-GlcNAc substrate) and 776.2/385.0 (UDP-3-O—(R-3-hydroxydecanoyl)-GlcNAc product, for P. aeruginosa LpxA assay) or 832.2/385.0 (UDP-3-O—(R-3-hydroxymyristoyl)-GlcNAc product, for E. coli LpxA assay).
For IC50 determinations, peak areas of the substrate and product were compared to compute the proportion of product formed by the LpxA enzyme at each compound concentration.

[2] = test system: P. aeruginosa PAO397; test: Broth microdilution MIC, P. aeruginosa PAO397; type: cell-based; settings: Pseudomonas aeruginosa, PAO397, 18 h, read-out: PAO397 KO MIC
[3] = target: T1, recombinant LpxA enzyme (P. aeruginosa) (Pseudomonas aeruginosa, UniProt Q9X6P4); test: LpxA in vitro substrate acylation assay with RapidFire MS analysis (P. aeruginosa); type: biochemical; settings: P. aeruginosa enzyme 0.5 nM, PaACP-C10, 30 min
T1 sequence (Q9X6P4 1-258): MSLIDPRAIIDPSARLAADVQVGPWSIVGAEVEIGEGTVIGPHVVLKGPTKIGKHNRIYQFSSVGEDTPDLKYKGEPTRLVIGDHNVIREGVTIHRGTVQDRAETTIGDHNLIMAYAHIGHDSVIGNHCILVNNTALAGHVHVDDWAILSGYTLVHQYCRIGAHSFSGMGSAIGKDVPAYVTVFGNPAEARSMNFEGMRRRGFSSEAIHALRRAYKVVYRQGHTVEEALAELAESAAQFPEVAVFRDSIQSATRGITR

[4] = test system: Wild-type P. aeruginosa PAO1; test: Broth microdilution MIC, wild-type P. aeruginosa PAO1; type: cell-based; settings: Pseudomonas aeruginosa; wild-type P. aeruginosa PAO1, 37° C., 18 h; read-out: PAO1 WT MIC
[5] = test system: P. aeruginosa LESB58; test: Broth microdilution MIC, P. aeruginosa LESB58; type: cell-based; settings: Pseudomonas aeruginosa; P. aeruginosa LESB58 clinical isolate, colistin-resistant, 37° C., 18 h
[6] = test system: P. aeruginosa PAO1 ΔmexABoprM; test: Broth microdilution MIC, P. aeruginosa PAO1 ΔmexABoprM; type: cell-based; settings: Pseudomonas aeruginosa, PAO1, 18 h, read-out: PAO1 KO MIC
Experimental: Exemplary compounds from the above Examples were tested to determine their minimum inhibitory concentration (MIC) for exemplary strains of Escherichia and Pseudomonas bacteria using broth microdilution methods. Assay procedures and results are described below.
Broth microdilution assays were conducted according to Clinical and Laboratory Standards Institute guidelines (CLSI, M07-A^11: Clinical and Laboratory Standards Institute. Methods for Dilution Antimicrobial Susceptibility Tests for Bacteria that Grow Aerobically; Approved Standard-11th Edition. Wayne, PA: CLSI, 2018). Briefly, bacterial suspensions were adjusted to a density equivalent to a 0.5 McFarland standard and diluted in sterile, cation-adjusted Mueller-Hinton broth (Beckton Dickinson) to yield a final inoculum between 2×10^5 and 8×10^5 colony-forming units (CFU)/mL. An inoculum volume of 98 μL was added to wells containing 2 μL of 2-fold serial dilutions of drug (prepared in DMSO). All inoculated microdilution trays were incubated in ambient air at 37° C. for 18 h. […] Performance of the assay was monitored by the use of laboratory quality-control strains (S. aureus ATCC 29213 and P. aeruginosa ATCC 27853) and levofloxacin, a compound with a defined MIC spectrum, in accordance with CLSI guidelines (CLSI, M100Ed29: Clinical and Laboratory Standards Institute. Performance Standards for Antimicrobial Susceptibility Testing, 29th Edition. Wayne, PA: CLSI, 2018).
Multiple enterobacteriaceae strains were tested, including both wild-type strains and multi-drug resistance pump deficient mutants. Specific strains tested included the following: • Wild-type P. aeruginosa PAO1, • P. aeruginosa PAO1 ΔmexABoprM—Disabled multi-drug efflux system Δ(MexAB-OprM), • P. aeruginosa PAO397—PAO1Δ(mexAB-oprM) Δ(mexCD-oprJ) Δ(mexEF-oprN) Δ(mexJK) Δ(mexXY) ΔopmH, • P. aeruginosa LESB58—Clinical isolate; colistin-resistant, isolated in the United Kingdom in 1988 from a patient with cystic fibrosis • E. coli JW0452-3 (BW25113 JacrA::kan)—Disabled multi-drug efflux system (AcrAB-TolC).
Experimental results are provided in Table 11, which provides MIC values for wild-type P. aeruginosa PAO1 (“PAO1 WT MIC”), P. aeruginosa PAO ΔmexABoprM (“PAO1 KO MIC”), P. aeruginosa PAO397 (“PAO397 KO MIC”), P. aeruginosa LESB58 (“LESB58”), and E. coli JW0452-3 (BW25113 JacrA::kan) (“E. coli KO MIC”).

recombinant LpxA enzyme (E. coli), sequence (P0A722 whole entry): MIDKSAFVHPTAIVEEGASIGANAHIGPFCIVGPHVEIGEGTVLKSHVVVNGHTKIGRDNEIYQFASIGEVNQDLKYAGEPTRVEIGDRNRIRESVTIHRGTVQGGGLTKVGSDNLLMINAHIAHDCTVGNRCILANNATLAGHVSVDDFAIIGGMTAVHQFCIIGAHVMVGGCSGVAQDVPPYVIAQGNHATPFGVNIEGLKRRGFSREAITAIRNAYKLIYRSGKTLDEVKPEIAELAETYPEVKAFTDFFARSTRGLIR

Row | SMILES | IC50 [1] [nM] | MIC [2] [µg/mL] | IC50 [3] [nM] | MIC [4] [µg/mL] | MIC [5] [µg/mL] | MIC [6] [µg/mL]
1 | N#Cc1ccc(CN(CC(=O)N2CCNCC2)C(=O)CSc2ccccc2Cl)cc1 [Compound No. 3] | > 20000 | 16 to 64 (≈ 36.1 to 144 µM) | > 1000 | > 64 |  | 
2 | CCc1ccccc1SCC(=O)N(Cc1ccc(C#N)nc1)Cc1nnc(N)o1 [Compound No. 7, N-[(5-Amino-1,3,4-oxadiazol-2-yl)methyl]-N-[(6-cyano-3-pyridyl)methyl]-2-(2-ethylphenyl)sulfanyl-acetamide] |  | < 1 | < 20 | > 64 | 16 to 64 (≈ 39.2 to 157 µM) | 1 to 16 (≈ 2.45 to 39.2 µM)
3 | N#Cc1ccc(CN(C(=O)CSc2ccccc2Cl)[C@@H](CO)c2nnc(N)o2)cn1 [Compound No. 8, 2-(2-Chlorophenyl)sulfanyl-N-[(6-cyano-3-pyridyl)methyl]-N-[(1S)-1-(5-amino-1,3,4-oxadiazol-2-yl)-2-hydroxy-ethyl]acetamide] | > 20000 | < 1 | < 20 | > 64 |  | 1 to 16 (≈ 2.25 to 36 µM)
4 | Nc1nnc(CN(Cc2ccc(OC3CCOCC3)cc2)C(=O)CSc2ccccc2Cl)o1 [Compound No. 11] | > 20000 | < 1 | 100 to 1000 |  |  | 1 to 16 (≈ 2.05 to 32.7 µM)
5 | N#Cc1ccc(CN(Cc2nnc(N)o2)C(=O)CSc2cc(F)cc(F)c2Cl)cn1 [Compound No. 21, N-[(5-Amino-1,3,4-oxadiazol-2-yl)methyl]-2-(2-chloro-3,5-difluoro-phenyl)sulfanyl-N-[(6-cyano-3-pyridyl)methyl]acetamide] |  | < 1 | < 20 | 16 to 64 (≈ 35.5 to 142 µM) | 16 to 64 (≈ 35.5 to 142 µM) | 1 to 16 (≈ 2.22 to 35.5 µM)
6 | N#Cc1ccc(CN(Cc2nnc(N)o2)C(=O)CSc2ccccc2Cl)cc1 [compound 9] | > 20000 | < 1 |  | 16 to 64 (≈ 38.7 to 155 µM) |  | 1 to 16 (≈ 2.42 to 38.7 µM)
7 | N#Cc1ccc(CN(Cc2nnc(N)o2)C(=O)CCc2ccccc2Cl)cn1 [compound 16] | > 20000 | 1 to 16 (≈ 2.52 to 40.3 µM) | 100 to 1000 | > 64 |  | 16 to 64 (≈ 40.3 to 161 µM)
8 | CCc1ccccc1OCC(=O)N(Cc1ccc(C#N)nc1)Cc1nnc(N)o1 [compound 19] |  | < 1 | 20 to 100 | > 64 | 16 to 64 (≈ 40.8 to 163 µM) | 1 to 16 (≈ 2.55 to 40.8 µM)
9 | Nc1nnc(CN(Cc2ccc(S(N)(=O)=O)cc2F)C(=O)CSc2cc(F)ccc2Cl)o1 [compound 24] |  | < 1 | 20 to 100 | > 64 | 16 to 64 (≈ 31.7 to 127 µM) | 1 to 16 (≈ 1.98 to 31.7 µM)
10 | Nc1nnc(CN(Cc2ccc(S(N)(=O)=O)cc2F)C(=O)CSc2cc(F)cc(F)c2Cl)o1 [compound 27] | > 20000 | < 1 |  | > 64 | 1 to 16 (≈ 1.92 to 30.7 µM) | < 1
11 | C[C@@H](Oc1ccccc1Cl)C(=O)N(Cc1ccc(C#N)cc1)Cc1nnc(N)o1 [compound 36] |  | < 1 | 100 to 1000 | > 64 | > 64 | 16 to 64 (≈ 38.8 to 155 µM)
12 | CC(=O)Nc1ccc(CN(Cc2nnc(N)o2)C(=O)CSc2ccccc2Cl)cc1 [compound 44] | > 20000 | 16 to 64 (≈ 35.9 to 144 µM) | 100 to 1000 | > 64 |  | 
13 | Cc1cc(C#N)ccc1CN(Cc1nnc(N)o1)C(=O)CSc1ccccc1Cl [compound 48] |  | < 1 | 20 to 100 | > 64 |  | 16 to 64 (≈ 37.4 to 150 µM)
14 | N#Cc1ccc(CN(Cc2nnc(N)o2)C(=O)CSc2cc(F)ccc2Cl)cc1 [compound 51] |  | < 1 | < 20 | > 64 | 1 to 16 (≈ 2.32 to 37 µM) | 1 to 16 (≈ 2.32 to 37 µM)
15 | N#Cc1ccc(CN(Cc2nnn[nH]2)C(=O)CSc2ccccc2Cl)cc1 [compound 54] | > 20000 | 16 to 64 (≈ 40.1 to 160 µM) |  | > 64 |  | 
16 | N#Cc1ccc(CN(Cc2nnc(N)o2)C(=O)CSc2cccc(Cl)c2Cl)c(F)c1 [compound 57] |  | < 1 | 20 to 100 | > 64 | 16 to 64 (≈ 34.3 to 137 µM) | 1 to 16 (≈ 2.14 to 34.3 µM)
17 | N#Cc1ccc(CN(Cc2nnc(N)o2)C(=O)CSc2ncccc2Cl)c(F)c1 [compound 58] |  | < 1 | 20 to 100 | > 64 | > 64 | 1 to 16 (≈ 2.31 to 37 µM)
18 | Nc1nnc(CN(Cc2ccc(S(N)(=O)=O)cc2)C(=O)CSc2cc(F)cc(F)c2Cl)o1 [compound 59] | > 20000 | < 1 | < 20 | > 64 | 16 to 64 (≈ 31.7 to 127 µM) | 1 to 16 (≈ 1.98 to 31.7 µM)
19 | Cc1ncc(CN(Cc2ccc(C#N)cc2)C(=O)CSc2ccccc2Cl)o1 [compound 73] | > 20000 | 1 to 16 (≈ 2.43 to 38.8 µM) | 100 to 1000 | > 64 |  | 
20 | Cc1nnc(CN(Cc2ccc(C#N)cc2)C(=O)CSc2ccccc2Cl)[nH]1 [compound 74] |  | 1 to 16 (≈ 2.43 to 38.8 µM) | 100 to 1000 | > 64 |  | 16 to 64 (≈ 38.8 to 155 µM)
21 | NC(=O)c1ccc(CN(Cc2nnc(N)o2)C(=O)CSc2ccccc2Cl)cc1 [compound 76] | > 20000 | 1 to 16 (≈ 2.32 to 37 µM) | 100 to 1000 | > 64 |  | 16 to 64 (≈ 37 to 148 µM)

From patent US20240166612A1, “ARYLTHIOETHER ACETAMIDE AND RELATED COMPOUNDS AND THEIR USE IN TREATING MEDICAL CONDITIONS” (X-Biotix Therapeutics, Inc., priority 2021, published 2024)
